Assay: In vivo tissue distribution of 131I-ethyliopanoate loaded microcapsules after i.v. injection
Design: species or system rat
Details: rats, 5 uCi radiotracer
Protocol: PBLG and estrone-PBLG microcapsules loaded with [^131 I]ethyliopanoate (5.7 μCi in […] of water) were administered to rats in the tail vein. Rats (N=3/group) were sacrificed at 1, 3, 6, and 24 hours after injection. The percentage of injected dose in an organ or tissue was determined by a gamma counter.
Estrone conjugated poly-benzyl-L-glutamate microcapsules loaded with ^131 I-labeled ethyliopanoate were injected into rats (three per group) via the tail-vein (5.7 μCi in 0.3 ml water). Control groups were given only the ^131 I-labeled iopanoic acid. Rats were sacrificed at 1, 3, 6 and 24 hours post injection. The percent of injected dose per organ or per tissue weight was determined by a COBRA Auto-gamma counter (Packard, Meridien, Conn.).

With `CCOC(=O)C(CC)Cc1c(I)cc(I)c(N)c1I` (stereo not drawn) [IOPA, ethyliopanoate] the “UTERUS TO MUSCLE RATIO” value (1 hr) was 2.92 ± 0.464, the “UTERUS TO MUSCLE RATIO” value (3 hrs) was 3.60 ± 0.346 and the “UTERUS TO MUSCLE RATIO” value (6 hrs) was 3.47 ± 0.122.
